What was measured:
[1] = The drug is tested on Providencia stuartii strain: ATCC25827 for biotransformation. The drug concentrations were measured before and after a 12-h incubation by liquid-chromatography-coupled mass spectrometry (LC–MS); settings: 2 µM
[2] = The drug is tested on Eubacterium rectale strain: ATCC33656 for biotransformation. The drug concentrations were measured before and after a 12-h incubation by liquid-chromatography-coupled mass spectrometry (LC–MS); settings: agathobacter rectalis, 2 µM
[3] = The drug is tested on Eubacterium hallii strain: DSM3353 for biotransformation. The drug concentrations were measured before and after a 12-h incubation by liquid-chromatography-coupled mass spectrometry (LC–MS); settings: anaerobutyricum hallii, 2 µM
[4] = The drug is tested on Coprococcus comes strain: ATCC27758 for biotransformation. The drug concentrations were measured before and after a 12-h incubation by liquid-chromatography-coupled mass spectrometry (LC–MS); type: ADME; design: dose 2 uM, timepoint 0 vs 12 hours; settings: 2 µM
[5] = bacteroides eggerthii, 12 h, 2 µM
Description: The drug is tested on Bacteroides eggerthii strain: DSM20697 for biotransformation. The drug concentrations were measured before and after a 12-h incubation by liquid-chromatography-coupled mass spectrometry (LC–MS)

[6] = The drug is tested on Clostridium sp. strain: fecal isolate for biotransformation. The drug concentrations were measured before and after a 12-h incubation by liquid-chromatography-coupled mass spectrometry (LC–MS); settings: 2 µM
[7] = The drug is tested on Bacteroides pectinophilus strain: ATCC43243 for biotransformation. The drug concentrations were measured before and after a 12-h incubation by liquid-chromatography-coupled mass spectrometry (LC–MS); settings: 2 µM
[8] = The drug is tested on Bifidobacterium longum subsp. Infantis strain: CCUG52486 for biotransformation. The drug concentrations were measured before and after a 12-h incubation by liquid-chromatography-coupled mass spectrometry (LC–MS); settings: 2 µM
[9] = The drug is tested on Bifidobacterium ruminantium strain: fecal isolate for biotransformation. The drug concentrations were measured before and after a 12-h incubation by liquid-chromatography-coupled mass spectrometry (LC–MS); settings: 2 µM
[10] = The drug is tested on Providencia rettgeri strain: DSM1131 for biotransformation. The drug concentrations were measured before and after a 12-h incubation by liquid-chromatography-coupled mass spectrometry (LC–MS); type: ADME; design: dose 2 uM, timepoint 0 vs 12 hours; settings: 2 µM
[11] = roseburia intestinalis, 12 h, 2 µM
Description: The drug is tested on Roseburia intestinalis strain: L1-82 for biotransformation. The drug concentrations were measured before and after a 12-h incubation by liquid-chromatography-coupled mass spectrometry (LC–MS)

[12] = parabacteroides distasonis, 12 h, 2 µM
Description: The drug is tested on Parabacteroides distasonis strain: ATCC8503 for biotransformation. The drug concentrations were measured before and after a 12-h incubation by liquid-chromatography-coupled mass spectrometry (LC–MS)

[13] = bacteroides intestinalis, 12 h, 2 µM
Description: The drug is tested on Bacteroides intestinalis strain: DSM17393 for biotransformation. The drug concentrations were measured before and after a 12-h incubation by liquid-chromatography-coupled mass spectrometry (LC–MS)

[14] = enterocloster bolteae, 12 h, 2 µM
Description: The drug is tested on Clostridium bolteae strain: ATCCBAA-613 for biotransformation. The drug concentrations were measured before and after a 12-h incubation by liquid-chromatography-coupled mass spectrometry (LC–MS)

[15] = segatella copri, 12 h, 2 µM
Description: The drug is tested on Prevotella copri strain: DSM18205 for biotransformation. The drug concentrations were measured before and after a 12-h incubation by liquid-chromatography-coupled mass spectrometry (LC–MS)

[16] = akkermansia muciniphila, 12 h, 2 µM
Description: The drug is tested on Akkermansia muciniphila strain: ATCC BAA-835 for biotransformation. The drug concentrations were measured before and after a 12-h incubation by liquid-chromatography-coupled mass spectrometry (LC–MS)

[17] = The drug is tested on Anaerotruncus colihominis strain: DSM17241 for biotransformation. The drug concentrations were measured before and after a 12-h incubation by liquid-chromatography-coupled mass spectrometry (LC–MS); settings: 2 µM
[18] = bifidobacterium adolescentis, 12 h, 2 µM
Description: The drug is tested on Bifidobacterium adolescentis strain: ATCC 15703 for biotransformation. The drug concentrations were measured before and after a 12-h incubation by liquid-chromatography-coupled mass spectrometry (LC–MS)

[19] = The drug is tested on Bacteroides uniformis strain: ATCC8492 for biotransformation. The drug concentrations were measured before and after a 12-h incubation by liquid-chromatography-coupled mass spectrometry (LC–MS); settings: 2 µM

Row | Bacterial Biotransformation [2] | Bacterial Biotransformation [3] | Bacterial Biotransformation [4] | Bacterial Biotransformation [5] | Bacterial Biotransformation [6] | Bacterial Biotransformation [7] | Bacterial Biotransformation [8] | Bacterial Biotransformation [9] | Bacterial Biotransformation [10] | Bacterial Biotransformation [11] | Bacterial Biotransformation [12] | Bacterial Biotransformation [13] | Bacterial Biotransformation [14] | Bacterial Biotransformation [15] | Bacterial Biotransformation [16] | Bacterial Biotransformation [17] | Bacterial Biotransformation [18] | Bacterial Biotransformation [19] | Compound | Bacterial Biotransformation [1]
1 | Compound NOT metabolized | Compound NOT metabolized | Compound NOT metabolized | Compound NOT metabolized | Compound NOT metabolized | Compound NOT metabolized | Compound NOT metabolized | Compound NOT metabolized | Compound NOT metabolized | Compound NOT metabolized | Compound NOT metabolized | Compound NOT metabolized | Compound NOT metabolized | Compound NOT metabolized | Compound NOT metabolized | Compound NOT metabolized | Compound NOT metabolized | – | COc1cc2nc(N(C)CCCNC(=O)C3CCCO3)nc(N)c2cc1OC (stereo unspecified) [ALFUZOSIN] | Compound NOT metabolized
2 | Compound NOT metabolized | Compound NOT metabolized | Compound NOT metabolized | Compound NOT metabolized | Compound NOT metabolized | Compound NOT metabolized | Compound NOT metabolized | Compound NOT metabolized | Compound NOT metabolized | Compound NOT metabolized | Compound NOT metabolized | Compound NOT metabolized | Compound NOT metabolized | Compound NOT metabolized | Compound NOT metabolized | Compound NOT metabolized | Compound NOT metabolized | Compound NOT metabolized | CCOc1ccc(NC(C)=O)cc1 [PHENACETIN] | –
3 | Compound NOT metabolized | Compound NOT metabolized | Compound NOT metabolized | – | Compound NOT metabolized | – | Compound NOT metabolized | Compound NOT metabolized | Compound NOT metabolized | Compound NOT metabolized | Compound NOT metabolized | Compound NOT metabolized | Compound NOT metabolized | Compound NOT metabolized | Compound NOT metabolized | Compound NOT metabolized | Compound NOT metabolized | Compound NOT metabolized | CC[C@@]1(O)C(=O)OCc2c1cc1n(c2=O)Cc2cc3c(CN(C)C)c(O)ccc3nc2-1 [TOPOTECAN] | –

Row | Compound | Bacterial Biotransformation [2] | Bacterial Biotransformation [3] | Bacterial Biotransformation [4] | Bacterial Biotransformation [5] | Bacterial Biotransformation [6] | Bacterial Biotransformation [7] | Bacterial Biotransformation [8] | Bacterial Biotransformation [9] | Bacterial Biotransformation [10] | Bacterial Biotransformation [11] | Bacterial Biotransformation [12] | Bacterial Biotransformation [13] | Bacterial Biotransformation [14] | Bacterial Biotransformation [15] | Bacterial Biotransformation [16] | Bacterial Biotransformation [17] | Bacterial Biotransformation [18] | Bacterial Biotransformation [19] | Bacterial Biotransformation [1]
4 | Br.CN1CCC[C@@H]1Cc1c[nH]c2ccc(CCS(=O)(=O)c3ccccc3)cc12 [ELETRIPTAN HYDROBROMIDE] | Compound NOT metabolized | Compound NOT metabolized | Compound NOT metabolized | Compound NOT metabolized | Compound NOT metabolized | Compound NOT metabolized | Compound NOT metabolized | Compound NOT metabolized | Compound NOT metabolized | Compound NOT metabolized | Compound NOT metabolized | Compound NOT metabolized | Compound NOT metabolized | Compound NOT metabolized | Compound NOT metabolized | Compound NOT metabolized | Compound NOT metabolized | Compound NOT metabolized | Compound NOT metabolized
